Results: patent US7595334B2, “Broadspectrum 2-(substituted-amino)-benzoxazole sulfonamide HIV protease inhibitors” (Tibotec Pharmaceuticals Ltd., priority 2001, dated 2009)

Key:
[1] = test system: HIV strain E (clinically isolated, protease mutations); type: cell-based; conditions: FR=EC50(mutant strain E)/EC50(HIV-1 strain LAI)
Description: (§1) HIV- or mock-infected MT4 cells were incubated for five days in the presence of various concentrations of the inhibitor. […] Cell viability is measured by measuring the concentration of MTT, a yellow, water soluble tetrazolium dye that is converted to a purple, water insoluble formazan in the mitochondria of living cells only. Upon solubilization of the resulting formazan crystals with isopropanol, the absorbance of the solution is monitored at 540 nm. The values correlate directly to the number of living cells remaining in the culture at the completion of the five day incubation. The inhibitory activity of the compound was monitored on the virus-infected cells and was expressed as EC50 and EC90. These values represent the amount of the compound required to protect 50% and 90%, respectively, of the cells from the cytopathogenic effect of the virus. The toxicity of the compound was measured on the mock-infected cells and was expressed as CC50, which represents the concentration of compound required to inhibit the growth of the cells by 50%. The selectivity index (SI) (ratio CC50/EC50) is an indication of the selectivity of the anti-HIV activity of the inhibitor. Wherever results are reported as e.g. pEC50 or pCC50 values, the result is expressed as the negative logarithm of the result expressed as EC50 or CC50 respectively.
(§2) As a measure of the broad spectrum activity of the present compounds, the fold resistance (FR), defined as FR=EC50(mutant strain)/EC50(HIV-1 strain LAI), was determined.

[2] = test system: HIV strain C (clinically isolated, protease mutations); type: cell-based; conditions: FR=EC50(mutant strain C)/EC50(HIV-1 strain LAI)
Description: as §1, §2

[3] = test system: HIV strain F (clinically isolated, protease mutations); type: cell-based; conditions: FR=EC50(mutant strain F)/EC50(HIV-1 strain LAI)
Description: as §1, §2

[4] = test system: HIV strain B (clinically isolated, protease mutations); type: cell-based; conditions: FR=EC50(mutant strain B)/EC50(HIV-1 strain LAI)
Description: as §1, §2

[5] = test system: HIV strain D (clinically isolated, protease mutations); type: cell-based; conditions: FR=EC50(mutant strain D)/EC50(HIV-1 strain LAI)
Description: as §1, §2

[6] = test system: HIV strain A (clinically isolated, protease mutations); type: cell-based; conditions: FR=EC50(mutant strain A)/EC50(HIV-1 strain LAI)
Description: as §1, §2

HIV-1 LAI = experiment: Protein binding analyses: anti-HIV activity in presence of serum proteins; type: cell-based; conditions: MT4 cells
Description: Human serum proteins like albumin (HSA) or α-1 acid glycoprotein (AAG) are known to bind many drugs, resulting in a possible decrease in the effectiveness of those compounds. In order to determine whether the present compounds would be adversely affected by this binding, the anti-HIV activity of the compounds was measured in the presence of human serum, thus evaluating the effect of the binding of the protease inhibitors to those proteins.
MT4 cells are infected with HIV-1 LAI at a multiplicity of infection (MOI) of 0.001-0.01 CCID50 (50% cell culture infective dose per cell, CCID50). After 1 h incubation, cells are washed and plated into a 96 well plate containing serial dilutions of the compound in the presence of 10% FCS (foetal calf serum), 10% FCS+1 mg/ml AAG (α1-acid glycoprotein), 10% FCS+45 mg/ml HSA (human serum albumin) or 50% human serum (HS). After 5 or 6 days incubation, the EC50 (50% effective concentration in cell-based assays) is calculated by determining the cell viability or by quantifying the level of HIV replication. Cell viability is measured using the assay described above. Into a 96 well plate containing serial dilutions of the compound in the presence of 10% FCS or 10% FCS+1 mg/ml AAG, HIV (wild type or resistant strain) and MT4 cells are added to a final concentration of 200-250 CCID50/well and 30,000 cells/well, respectively. After 5 days of incubation (37° C., 5% CO2), the viability of the cells is determined by the tetrazolium colorimetric MTT (3-[4,5-Dimethylthiazol-2-yl]-2,5-diphenyltetrazolium bromide) method (Pauwels et al. J Virol. Methods 1988, 20, 309-321).

mock-infected MT4 cells = experiment: in vitro
Description: as §1, §2

in vitro = conditions: human
Description: as §1, §2

[7] = in vivo, ip, 20 mg/kg
Description: The compounds are formulated as a 20 mg/ml solution or suspension in DMSO, PEG400 or cyclodextin 40% in water. For most experiments in the rat (male and female rats), three dosing groups are formed: 1/single intraperitoneal (IP) dose at 20 mg/kg using the DMSO formulation; 2/single oral dose at 20 mg/kg using the PEG400 formulation and 3/single oral dose at 20 mg/kg using the cyclodextrin formulation. Blood is sampled at regular time intervals after dosing and drug concentrations in the serum are determined using a LC-MS bioanalytical method. Serum concentrations are expressed in […] after normalization to 10 mg/kg. Serum concentration at 30 minutes (30′) and at 3 hours (180′) can be determined as these values reflect the extent of absorption (30′) and the speed of elimination (180′). The rat serum concentration at 30 min and 180 min following IP administration of 20 mg/kg of compound 4 are 1098 ng/ml and 553 ng/ml respectively.

Structure (SMILES) | E (FR) fold resistance [1] | C (FR) fold resistance [2] | F (FR) fold resistance [3] | B (FR) fold resistance [4] | D (FR) fold resistance [5] | A (FR) fold resistance [6] | Ratio of the EC50 compared to FCS (10%) (HIV-1 LAI; AAG 1 mg/ml (10% FCS+AAG)) | Ratio of the EC50 compared to FCS (10%) (HIV-1 LAI; FCS (10%)) | Ratio of the EC50 compared to FCS (10%) (HIV-1 LAI; HS 50% (human serum)) | Ratio of the EC50 compared to FCS (10%) (HIV-1 LAI; HSA 45 mg/ml (10% FCS+HSA)) | Tox (pCC50) (mock-infected MT4 cells) | CC50 at 5 days (in vitro) [µM] | rat serum concentration at 30 min [7] [ng/mL] | rat serum concentration at 180 min [7] [ng/mL]
CC(=O)Nc1nc2ccc(S(=O)(=O)N(CC(C)C)C[C@@H](O)[C@H](Cc3ccccc3)NC(=O)O[C@H]3CO[C@H]4OCC[C@H]43)cc2o1 [Compound 1] | 0.40 | 0.50 | 0.71 | 0.80 | 0.72 | 0.63 | 25 | 1 | 15 | 6 | <4 |  |  | 
CC(C)CN(C[C@@H](O)[C@H](Cc1ccccc1)NC(=O)OCc1cncs1)S(=O)(=O)c1ccc2nc(NC(=O)c3ccncc3)oc2c1 [Compound 10] | 1.3 | 1.1 | 20 | 10.83 | 3.9 | 3.9 |  |  |  |  |  | 53.7 |  | 
CC(C)CN(C[C@@H](O)[C@H](Cc1ccccc1)NC(=O)O[C@H]1CO[C@H]2OCC[C@H]21)S(=O)(=O)c1ccc2nc(NCCN3CCCC3)oc2c1 [Compound 4] | 0.50 | 1.70 | 3.2 | 1.62 | 0.47 | 1.95 |  |  |  |  |  |  | 1098 | 553
